From publication PMC12298237 (Marine Drugs, 2025)
Where a SMILES comes first, the peptide text is derived from it. [ ]: non-standard residue; d: D form. The star is where a group is joined. Leu(ol) = CC(C)C[C@H](N)CO; dIva = CC[C@@](C)(N)C(=O)O; Octanoyl = CCCCCCCC(=O)*

Tests used:
Assay type in all cases: cell-based, human
[1] = system: DLD-1 cells; assay: Cell cycle analysis by flow cytometry (PI); settings: DLD-1, 24 h of exposure, in words
Experimental: (§1) Following treatment, cells were collected, washed, and fixed in 75% pre-chilled ethanol at −20 °C for 24 h. After fixation, cells were centrifuged, washed twice with cold PBS, and stained with propidium iodide (PI, 0.1 mg/mL) in the presence of RNase A (0.1 mg/mL) at 37 °C for 30 min. Cell cycle distribution was analyzed by flow cytometry (LSRFortessa, BD, Canton, MA, USA). To enhance the clarity of the results, cell populations were selectively gated using the ModFit LT 5.0 software.

[2] = system: HT-29 cells; assay: Cell cycle analysis by flow cytometry (PI); settings: HT-29, 24 h of exposure, in words
Experimental: as §1

[3] = system: DLD-1 cells; assay: Colony formation assay; settings: DLD-1, 9 or 18 μM, two weeks, crystal violet, vs untreated control, n = 3
Experimental: (§2) For colony formation assays, DLD-1 and HT-29 cells were seeded into 6-well plates at a density of 800 cells per well. […] The culture medium was refreshed every four days. After two weeks of continuous culture, colonies were fixed with 4% paraformaldehyde for 15 min and subsequently stained with crystal violet solution (Yuanye, Shanghai, China) for 20 min. Colony formation was quantified using ImageJ 1.54g software.

[4] = system: HT-29 cells; assay: Colony formation assay; settings: HT-29, 9 or 18 μM, two weeks, crystal violet, vs untreated control, n = 3
Experimental: as §2

[5] = system: phosphorylated ERK1/2 (p-ERK) in HT-29 cells; assay: Western blot of phosphorylated ERK1/2; settings: HT-29, 9 and 18 μM, 24 h
Experimental: (§3) Western blotting was performed as previously described. […] Cells were washed twice with PBS and lysed in RIPA buffer (Beyotime Biotechnology, Jiangsu, China) on ice for 30 min. Lysates were centrifuged at 12,000 rpm for 20 min at 4 °C, and the supernatant containing total protein was collected. Equal amounts of protein were separated by SDS-PAGE and transferred onto polyvinylidene fluoride (PVDF) membranes. Membranes were blocked with 5% non-fat milk at room temperature for 1 h, followed by incubation with the appropriate primary and secondary antibodies. Protein bands were visualized using the Omni-ECL Femto Light Chemiluminescence Kit (Epizyme, Shanghai, China) and imaged with the Amersham Imager 680 (Cytiva, Marlborough, MA, USA).

[6] = system: phosphorylated ERK1/2 (p-ERK) in DLD-1 cells; assay: Western blot of phosphorylated ERK1/2; settings: DLD-1, 9 and 18 μM, 24 h
Experimental: as §3

[7] = system: DLD-1 cells; assay: Calcein-AM/PI staining assay; settings: DLD-1, 18 μM, 0, 6, 12 and 18 h, fluorescence microscopy
Experimental: (§4) For the Calcein-AM/PI staining assay, DLD-1 and HT-29 cells were seeded in 24-well plates at 5 × 10^4 cells per well. […] After incubation for 0, 6, 12, and 18 h, cells were stained by using the calcein AM (MedChem Express (Monmouth Junction, NJ, USA), 5 μM) and propidium iodide (MedChem Express, 50 μg/mL). The cells were incubated in the dark at 37 °C for 30 min, followed by imaging with an inverted fluorescence microscope.

[8] = system: HT-29 cells; assay: Calcein-AM/PI staining assay; settings: HT-29, 18 μM, 0, 6, 12 and 18 h, fluorescence microscopy
Experimental: as §4

## CCCCCCCC(=O)NCC(=O)N[C@@H](Cc1ccccc1)C(=O)N[C@@H](CC(C)C)C(=O)N[C@](C)(CC)C(=O)N[C@@H](C)C(=O)N[C@@H](CC(C)C)C(=O)N[C@H](CO)CC(C)C [Compound 1, lipotrichaibol A] (Octanoyl-GFL[dIva]AL[Leu(ol)])
[1]
  proportion of cells in the G0/G1 phase: significant increase
[2]
  proportion of cells in the G0/G1 phase: significant increase
[3]
  number of colony-forming cells: markedly reduced
[4]
  number of colony-forming cells: markedly reduced
[5]
  levels of phosphorylated ERK1/2 (p-ERK): significantly reduced
[6]
  levels of phosphorylated ERK1/2 (p-ERK): significantly reduced
[7]
  cell proliferation and dead cells (Calcein-AM/PI staining): pronounced reduction in cell proliferation
[8]
  cell proliferation and dead cells (Calcein-AM/PI staining): pronounced reduction in cell proliferation
